In patent publication US5464836A, “Benzophenones having an antifungal activity” (Ministero dell'Universita` e della Ricerca Scientifica e …, priority 1991, dated 1995):

System: Helminthosporium teres
Test: preventive fungicidal activity on Helminthosporium teres (barley leaves)
Format: in vivo
Conditions: barley leaves cv. Arna, 12 days, scale 100 (healthy plant) to 0 (completely infected plant)
Protocol: Determination of the preventive fungicidal activity on Helminthosporium teres. Barley leaves cv. Arna, cultivated in a vase in a conditioned environment, were treated by spraying both sides with the products being tested (compounds 1 and 2) in a 20% hydroacetonic solution of acetone (vol./vol.). After remaining 2 days in the conditioned environment at 20° C. and 70% R.H., the plants were sprayed on both sides of the leaves with an aqueous suspension of Helminthosporium teres (250.000 conidii per cc.). After 24 hours in a humidity saturated atmosphere, at 21° C., the plants were kept in a conditioned environment for the incubation of the fungus. At the end of this period (12 days), the gravity of infection was estimated by observation, with a scale of indexes ranging from 100 (healthy plant) to 0 (completely infected plant).

CC(Cc1cccc(C(=O)c2ccccc2)c1)CN1C[C@@H](C)O[C@@H](C)C1 (stereo partly shown) [Compound 1, 4-[3-(3-benzoylphenyl)-2-methylpropyl]-2,6-dimethylmorpholine]
% Control Helminthosporium (dosage 125 ppm): 100% | % Control Helminthosporium (dosage 500 ppm): 100%

CC(Cc1cccc(C(=O)c2ccc(Cl)cc2)c1)CN1C[C@@H](C)O[C@@H](C)C1 (stereo partly shown) [Compound 2, 4-[3-(3-(4-chlorobenzoyl)phenyl)-2-methylpropyl]-2,6-dimethylmorpholine]
% Control Helminthosporium (dosage 125 ppm): 100% | % Control Helminthosporium (dosage 500 ppm): 100%
